Tests used:
FGR = FGR (Homo sapiens (Human), UniProt P09769); experiment: Kinase selectivity experiment, FGR; assay type: biochemical; settings: read-out: Inhibitory activity against FGR (IC50)
Procedure: (§1) A 1× kinase base buffer and a reaction stop buffer for respective kinases in the experiment were prepared as required.
(§2) Preparation of Compounds to be Tested:
(§3) 2) diluting each compound at a 5-fold concentration gradient in a 96-well plate to 6 to 7 concentrations and ensuring that the drug volume in each well was 10 μl; and at the same time adding 100 μl of DMSO to prepare a blank control group and also preparing a negative control group without the enzyme substrate; and
(§4) 3) preparing another 96-well plate, adding 10 μl of each of the above compounds to 90 μl of the 1× kinase base buffer and mixing for 10 minutes to be uniform.
(§5) Preparation of the Plate to be Tested:
(§6) 1) 5 μl of the mixed solution prepared as above in the 96-well plate was taken and transferred to a 384-well plate, with two replicate wells for each compound.
(§7) 1) Preparing a 2.5× kinase solution and adding a corresponding 1× kinase base buffer;
(§8) 2) preparing a 2.5× polypeptide solution and adding FAM-labeled polypeptide and ATP in the 1× kinase base buffer; and
(§9) 3) adding 10 μl of 2.5× kinase solution to a 384-well plate to be tested, placing in a room-temperature environment for 10 minutes, and then adding 10 μl of the 2.5× polypeptide solution, reacting at 28° C. for 1 hour, and then adding 25 μl of a reaction stop buffer.
(§10) The Caliper program reads the plate and uses the data to obtain the IC50 values of the corresponding compounds against kinases.

JAK3 = JAK3 (Homo sapiens (Human), UniProt P52333); experiment: Kinase selectivity experiment, JAK3; assay type: biochemical; settings: read-out: Inhibitory activity against JAK3 (IC50)
Chain of JAK3 (P52333 whole entry, species assumed): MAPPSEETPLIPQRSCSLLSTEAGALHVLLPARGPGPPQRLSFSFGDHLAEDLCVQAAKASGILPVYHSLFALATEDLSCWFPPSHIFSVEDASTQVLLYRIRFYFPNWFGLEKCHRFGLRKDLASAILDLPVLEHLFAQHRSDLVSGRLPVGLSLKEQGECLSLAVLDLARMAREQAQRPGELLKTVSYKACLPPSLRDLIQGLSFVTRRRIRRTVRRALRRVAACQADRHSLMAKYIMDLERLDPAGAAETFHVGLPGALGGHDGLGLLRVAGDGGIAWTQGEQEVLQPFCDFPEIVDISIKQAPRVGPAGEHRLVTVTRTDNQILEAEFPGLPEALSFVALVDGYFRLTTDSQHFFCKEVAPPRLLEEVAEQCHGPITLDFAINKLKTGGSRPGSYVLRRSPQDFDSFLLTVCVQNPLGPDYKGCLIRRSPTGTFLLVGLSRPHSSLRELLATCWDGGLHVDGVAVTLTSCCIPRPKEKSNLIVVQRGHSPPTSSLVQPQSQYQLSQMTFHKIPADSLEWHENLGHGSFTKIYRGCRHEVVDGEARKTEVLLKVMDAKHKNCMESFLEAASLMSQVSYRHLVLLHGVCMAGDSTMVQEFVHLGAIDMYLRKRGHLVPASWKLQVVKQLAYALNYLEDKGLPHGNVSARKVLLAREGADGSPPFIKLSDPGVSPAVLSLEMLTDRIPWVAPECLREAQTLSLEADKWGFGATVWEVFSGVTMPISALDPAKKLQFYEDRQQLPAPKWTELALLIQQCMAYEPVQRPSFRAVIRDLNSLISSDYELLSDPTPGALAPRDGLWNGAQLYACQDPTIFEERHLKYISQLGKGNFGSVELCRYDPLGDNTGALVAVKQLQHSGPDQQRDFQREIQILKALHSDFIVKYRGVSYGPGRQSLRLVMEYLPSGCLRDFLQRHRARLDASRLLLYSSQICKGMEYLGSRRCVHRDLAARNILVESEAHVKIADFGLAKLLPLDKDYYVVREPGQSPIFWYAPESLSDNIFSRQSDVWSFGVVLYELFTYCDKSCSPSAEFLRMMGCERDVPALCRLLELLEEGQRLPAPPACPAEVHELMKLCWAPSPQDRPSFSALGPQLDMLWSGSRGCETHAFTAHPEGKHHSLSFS
Procedure: as §1, §2, §3, §4, §5, §6, §7, §8, §9, §10

[1] = tested on: diffuse giant B-cell lymphoma (OCI-LY10); experiment: In-vitro tumor cell proliferation inhibition (CCK-8), OCI-LY10; settings: Homo sapiens, OCI-Ly10, 72 h, read-out: Tumor cell proliferation inhibitory activity (IC50, nM) OCI-LY10
Procedure: (§11) The in-vitro antitumor activity assay was carried out on the synthesized compound by using different solid tumors and leukemia cell lines:
(§12) Cell lines: human lung cancer cell (A549), human mantle cell lymphoma (MINO), diffuse giant B-cell lymphoma (OCI-LY10), and human diffuse large B lymphoma (TMD-8).
(§13) Preparation method of the drug: the drug was dissolved in DMSO to make a 10 mM stock solution, and then the stock solution was diluted in a certain ratio to obtain 5 different concentrations (test concentration 100×). In-vitro culture of tumor cells:
(§14) The tumor cells A549, MINO, OCI-LY10, and TMD-8 were seeded in a 96-well plate at 4000 cells/200 μL/well and then incubated overnight at 37° C. in a 5% CO2 cell culture incubator. 2 μL of the compound was added to each well to final concentrations of 50 μM, 10 μM, 2 μM, 0.4 μM, and 0.08 μM and then incubated for 72 hours at 37° C. in a 5% CO2 cell incubator, with DMSO (2%) as a control group. […] Wells loaded with the corresponding amount of cell culture fluid the and CCK-8 solution but no cells were considered as blank controls. The absorbance (OD value) was measured at 450 nm using a microplate reader, and the obtained data was used to calculate IC50.

HCK = HCK (Homo sapiens (Human), UniProt P08631); experiment: Kinase selectivity experiment, HCK; assay type: biochemical; settings: read-out: Inhibitory activity against HCK (IC50)
Chain of HCK (P08631 whole entry, species assumed): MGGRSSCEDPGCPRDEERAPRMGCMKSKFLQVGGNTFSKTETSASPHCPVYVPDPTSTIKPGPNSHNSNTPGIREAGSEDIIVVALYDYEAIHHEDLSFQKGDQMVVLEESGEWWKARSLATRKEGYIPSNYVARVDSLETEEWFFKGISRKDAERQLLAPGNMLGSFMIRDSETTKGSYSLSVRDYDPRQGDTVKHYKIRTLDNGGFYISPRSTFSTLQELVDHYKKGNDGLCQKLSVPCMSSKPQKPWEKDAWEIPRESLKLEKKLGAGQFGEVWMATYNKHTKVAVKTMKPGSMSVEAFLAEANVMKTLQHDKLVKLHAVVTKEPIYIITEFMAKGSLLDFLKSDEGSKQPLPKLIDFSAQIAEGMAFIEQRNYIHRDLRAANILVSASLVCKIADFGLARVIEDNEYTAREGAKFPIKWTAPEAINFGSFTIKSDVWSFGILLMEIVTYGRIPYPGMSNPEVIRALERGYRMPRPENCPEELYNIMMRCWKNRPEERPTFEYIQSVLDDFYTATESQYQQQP
Procedure: as §1, §2, §3, §4, §5, §6, §7, §8, §9, §10

CSK = CSK (Homo sapiens (Human), UniProt P41240); experiment: Kinase selectivity experiment, CSK; assay type: biochemical; settings: read-out: Inhibitory activity against CSK (IC50)
Procedure: as §1, §2, §3, §4, §5, §6, §7, §8, §9, §10

[2] = tested on: human mantle cell lymphoma (MINO); experiment: In-vitro tumor cell proliferation inhibition (CCK-8), MINO; settings: 72 h, read-out: Tumor cell proliferation inhibitory activity (IC50, μM) MINO
[3] = tested on: human diffuse large B lymphoma (TMD-8); experiment: In-vitro tumor cell proliferation inhibition (CCK-8), TMD-8; settings: TMD8, 72 h, read-out: Tumor cell proliferation inhibitory activity (IC50, nM) TMD-8
Procedure: as §11, §12, §13, §14

ITK = ITK (Homo sapiens (Human), UniProt Q08881); experiment: Kinase selectivity experiment, ITK; assay type: biochemical; settings: read-out: Inhibitory activity against ITK (IC50)
Chain of ITK (Q08881 whole entry, species assumed): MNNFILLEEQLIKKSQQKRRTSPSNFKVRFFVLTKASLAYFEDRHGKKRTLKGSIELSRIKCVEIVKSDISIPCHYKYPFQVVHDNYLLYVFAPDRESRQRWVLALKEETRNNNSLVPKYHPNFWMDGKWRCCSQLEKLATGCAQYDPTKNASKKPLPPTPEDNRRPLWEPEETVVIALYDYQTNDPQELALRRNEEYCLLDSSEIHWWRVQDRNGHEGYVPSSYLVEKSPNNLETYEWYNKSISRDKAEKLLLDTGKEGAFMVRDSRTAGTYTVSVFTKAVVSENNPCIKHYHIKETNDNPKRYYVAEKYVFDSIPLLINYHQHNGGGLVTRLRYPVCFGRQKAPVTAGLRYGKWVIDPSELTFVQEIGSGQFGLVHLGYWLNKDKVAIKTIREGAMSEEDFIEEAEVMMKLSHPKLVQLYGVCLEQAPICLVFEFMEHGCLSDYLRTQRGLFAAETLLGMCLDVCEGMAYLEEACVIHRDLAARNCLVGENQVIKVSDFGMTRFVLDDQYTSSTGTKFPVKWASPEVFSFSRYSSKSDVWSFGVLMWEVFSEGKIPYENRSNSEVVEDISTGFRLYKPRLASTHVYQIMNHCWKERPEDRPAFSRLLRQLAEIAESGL
Procedure: as §1, §2, §3, §4, §5, §6, §7, §8, §9, §10

BLK = BLK (Homo sapiens (Human), UniProt P51451); experiment: Kinase selectivity experiment, BLK; assay type: biochemical; settings: read-out: Inhibitory activity against BLK (IC50)
Chain of BLK (P51451 whole entry, species assumed): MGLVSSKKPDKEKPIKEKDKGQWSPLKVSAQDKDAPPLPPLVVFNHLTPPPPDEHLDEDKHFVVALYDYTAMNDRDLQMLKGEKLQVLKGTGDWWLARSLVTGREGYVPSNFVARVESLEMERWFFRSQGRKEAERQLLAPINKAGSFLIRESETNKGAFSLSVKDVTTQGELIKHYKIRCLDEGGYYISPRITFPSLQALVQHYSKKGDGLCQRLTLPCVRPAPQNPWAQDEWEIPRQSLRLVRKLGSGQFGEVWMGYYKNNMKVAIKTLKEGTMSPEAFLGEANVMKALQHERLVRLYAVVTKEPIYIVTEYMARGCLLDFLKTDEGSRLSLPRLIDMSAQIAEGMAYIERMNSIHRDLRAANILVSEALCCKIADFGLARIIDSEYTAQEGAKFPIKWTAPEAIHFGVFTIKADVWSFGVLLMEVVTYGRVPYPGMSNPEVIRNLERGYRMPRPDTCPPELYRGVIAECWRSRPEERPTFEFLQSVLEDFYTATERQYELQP
Procedure: as §1, §2, §3, §4, §5, §6, §7, §8, §9, §10

FLT3 = FLT3 (Homo sapiens (Human), UniProt P36888); experiment: Kinase selectivity experiment, FLT3; assay type: biochemical; settings: read-out: Inhibitory activity against FLT3 (IC50)
Chain of FLT3 (P36888 27-993, species assumed): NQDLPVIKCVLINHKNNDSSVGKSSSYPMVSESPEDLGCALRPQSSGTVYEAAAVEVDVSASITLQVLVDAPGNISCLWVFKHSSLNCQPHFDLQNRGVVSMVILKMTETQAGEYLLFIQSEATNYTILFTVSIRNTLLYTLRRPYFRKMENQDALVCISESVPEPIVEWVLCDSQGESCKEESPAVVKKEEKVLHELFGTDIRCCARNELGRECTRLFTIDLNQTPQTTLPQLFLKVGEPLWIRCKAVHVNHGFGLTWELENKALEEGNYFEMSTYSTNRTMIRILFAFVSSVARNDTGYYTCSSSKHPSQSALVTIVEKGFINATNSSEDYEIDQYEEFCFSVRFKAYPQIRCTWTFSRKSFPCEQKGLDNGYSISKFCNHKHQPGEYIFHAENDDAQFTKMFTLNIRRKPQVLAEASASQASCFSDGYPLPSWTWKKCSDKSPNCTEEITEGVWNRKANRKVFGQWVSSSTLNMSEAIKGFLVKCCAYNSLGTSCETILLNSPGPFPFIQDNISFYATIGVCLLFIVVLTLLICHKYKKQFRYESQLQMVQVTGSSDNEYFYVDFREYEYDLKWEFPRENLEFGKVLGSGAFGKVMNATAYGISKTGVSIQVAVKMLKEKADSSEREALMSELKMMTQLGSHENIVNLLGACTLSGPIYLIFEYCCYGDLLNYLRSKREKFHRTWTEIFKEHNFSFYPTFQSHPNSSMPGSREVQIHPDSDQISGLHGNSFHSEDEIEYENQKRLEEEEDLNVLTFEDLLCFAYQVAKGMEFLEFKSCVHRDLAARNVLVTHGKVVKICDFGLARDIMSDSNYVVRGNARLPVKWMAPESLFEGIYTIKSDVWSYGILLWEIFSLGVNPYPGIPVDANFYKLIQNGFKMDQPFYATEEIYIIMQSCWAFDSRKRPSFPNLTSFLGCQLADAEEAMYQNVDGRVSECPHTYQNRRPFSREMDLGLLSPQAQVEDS
Procedure: as §1, §2, §3, §4, §5, §6, §7, §8, §9, §10

[4] = tested on: arthritis induced by anti-collagen antibodies and lipopolysaccharides; experiment: Rheumatoid arthritis model induced by anti-collagen antibodies and lipopolysaccharides; assay type: in vivo, Balb/c mice
Procedure: In Balb/c mice, arthritis was induced by administration of anti-collagen antibodies and lipopolysaccharides (Nandakumar et al., Am. J. Pathol. 2003, 163: 1827-1837).
The specific method was as follows: On Day 0, female Balb/c mice were intravenously injected with anti-type II collagen ChemicomAb mixture in a dose of 100 mg/kg, and on Day 1, lipopolysaccharide was intraperitoneally injected in a dose of 1.25 mg/kg. From Day 2 to Day 12, Compounds 15a, 17a, 24a and 24e were orally administered once a day in a dose of 10 mg/kg. On Day 13 after abdominal anesthesia, […] of blood was taken from the femoral artery and centrifuged at 3000 r/min for 20 minutes, serum was taken to detect IL-1β with a test kit, and related tissue samples were observed.

[5] = tested on: Mino subcutaneous xenograft tumor; experiment: In-vivo pharmacodynamic study on Mino subcutaneous xenograft tumor models; settings: CB17 SCID mice, intragastric, twice a day
Procedure: In CB17 SCID mice, 0.2 mL of cell suspension containing 5×10^6 Mino cells was subcutaneously inoculated into the right back of each mouse, and when the mean tumor volume reaches approximately 139.94 mm3 (day 26 after inoculation), group administration was started (intragastric administration, twice a day, 14 days in total). Animals were monitored daily for health and mortality, and tumor diameters were measured twice a week using vernier calipers to see if tumor growth could be inhibited, delayed, or cured.

hERG potassium channel = hERG potassium channel (Homo sapiens (Human), UniProt Q12809); experiment: hERG potassium channel inhibitory activity, manual patch clamp in CHO cells; assay type: cell-based; settings: CHO cells stably expressing hERG, whole-cell patch clamp
Procedure: The cells used in this experiment were CHO cell lines transfected with HergCdna and stably expressing Herg channels (supplied by Sophion Bioscience, Denmark). The cells were cultured in a medium containing the following components (all from Invitrogen): Ham's F12 medium, 10% (v/v) inactivated fetal bovine serum, 100 μg/ml hygromycin B, 100 μg/ml Geneticin. […] 24 to 48 hours before an electrophysiological experiment, CHO Herg cells were transferred to circular slides placed in the culture dishes and grow with the same culture liquid under the same culture conditions as above. The density of CHO Herg cells on each circular slide was required to reach such a value that most cells were independent and stand alone.
2. Treatment and Dilution of a Compound
Before the test, the compound was first diluted with DMSO at gradient to make stock solutions with concentrations of 10, 3, 1, 0.3 and 0.1 Mm and the stock solutions were then diluted with extracellular fluid to a final Mm test concentration. Except that the DMSO concentration in the 30 Mm compound test solution was 0.3%, the final concentration of DMSO in each of the compound solutions with other concentrations was 0.1%. The test concentration of a positive control Cisapridewas 0.1 Mm. All compound solutions were conventionally sonicated and shaken for 5 to 10 minutes to ensure complete dissolution of the compound.
3. Electrophysiological Recording System and Data Analysis
This experiment uses a manual patch clamp system (HEKA EPC-10 signal amplifier and digital conversion system, purchased from HEKA Electronics, Germany) for the recording of whole cell currents. The circular slides with CHO Herg cells growing on the surfaces were placed in an electrophysiological recording slot under an inverted microscope. The extracellular fluid was used for continuous perfusion in the recording slot (approximately lml per minute). The experimental procedure uses a conventional whole-cell patch clamp current recording technique. Unless otherwise stated, the experiment was carried out at regular room temperature ([…]). The cells were clamped at a voltage of −80 Mv. The cell clamp voltage was depolarized to +20 Mv to activate the Herg potassium channel, and 5 seconds later, it was clamped to −50 Mv to eliminate inactivation and generate tail current. The peak of the tail current was used as the value of the Herg current. After the hERG potassium current recorded in the above step was stabilized under the continuous extracellular fluid perfusion in the recording slot, the drug to be tested can be superimposed to the perfusion until the inhibitory effect of the drug on the hERG current reaches a steady state. Generally, the criterion for determine whether or not the stable state was reached was that the recent three consecutive current recording lines were coincident. After the steady state was reached, extracellular fluid perfusion was carried out for flushing until the hERG current returns to the magnitude before the drug was added. One cell may be used for testing one or more drugs, or multiple concentrations of the same drug, and flushing with extracellular fluid was carried out between tests of different drugs. Cisapride (purchased from Sigma) was used in the experiment as a positive control to ensure that the cells used were of normal quality. The test data was analyzed by data analysis software provided by HEKA Patchmaster, Microsoft Excel and Graphpad Prism.

[6] = tested on: human lung cancer cell (A549); experiment: In-vitro tumor cell proliferation inhibition (CCK-8), A549; settings: A549, 72 h, read-out: Tumor cell proliferation inhibitory activity (IC50, μM) A549
Procedure: as §11, §12, §13, §14

Chain of FGR (P09769 whole entry, species assumed): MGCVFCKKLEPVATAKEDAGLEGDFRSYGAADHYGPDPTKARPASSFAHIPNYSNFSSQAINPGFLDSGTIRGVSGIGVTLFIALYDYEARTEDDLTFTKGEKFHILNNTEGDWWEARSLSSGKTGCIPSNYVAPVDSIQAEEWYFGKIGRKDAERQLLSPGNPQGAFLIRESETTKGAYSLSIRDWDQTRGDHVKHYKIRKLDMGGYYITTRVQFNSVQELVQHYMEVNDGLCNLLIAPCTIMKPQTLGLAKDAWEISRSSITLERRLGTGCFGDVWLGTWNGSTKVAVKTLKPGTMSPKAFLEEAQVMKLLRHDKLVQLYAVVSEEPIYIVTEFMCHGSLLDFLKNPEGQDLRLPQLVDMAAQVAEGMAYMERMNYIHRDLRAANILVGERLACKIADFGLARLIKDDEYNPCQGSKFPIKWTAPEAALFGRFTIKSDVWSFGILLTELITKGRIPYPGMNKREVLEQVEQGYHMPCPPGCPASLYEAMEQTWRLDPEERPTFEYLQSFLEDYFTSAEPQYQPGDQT

- IC50 (FGR): > 1 µM
- IC50 (JAK3): > 1 µM
- IC50 [1]: 1.41 nM
- IC50 (HCK): > 1 µM
- IC50 (CSK): > 1 µM
- IC50 [2]: 8.62 µM
- IC50 [3]: 5.57 nM
- IC50 (ITK): > 1 µM
- IC50 (BLK): 0.011 µM
- IC50 (FLT3): > 1 µM
- IC50 [6]: 1.67 µM
Structure (SMILES): C=CC(=O)N1CCC[C@@H](n2nc(-c3ccc(Oc4ccccc4)nc3F)c3c(N)ncnc32)C1 [Compound 17a, (R)-1-(3-(4-amino-3-(2-fluoro-6-phenoxypyridin-3-yl)-1H-pyrazolo[3,4-d]pyrimidin-1-yl)piperidin-1-yl)prop-2-en-1-one]
- level of IL-1β in serum (in words) ([4]; 10 mg/kg orally once a day, versus model group): significantly reduce
- IL-1β ([4]; serum on Day 13, 10 mg/kg orally once a day Day 2 to Day 12): 17.25 ± 3.9 ng/L
- inflammatory cell infiltration, synovial hyperplasia, inflammatory granulation tissue formation, necrotic tissue ([4]; tissue samples after treatment, versus model group): significantly improved
- TGI*(14 days) (%) calculated on the basis of tumor volume [5]: 82.54%
- TGI**(14 days) (%) calculated on the basis of tumor weight [5]: 74.05%
- IC50 (hERG potassium channel): 7.8 µM

— US10711006B2, “Selective Bruton's tyrosine kinase inhibitor and use thereof” (HANGZHOU HERTZ PHARMACEUTICAL CO., LTD., priority 2016, dated 2020)
